Reference: patent US12390423B2 (priority 2019, dated 2025)
Entries after “also recorded” stand apart in the source; their conditions may differ.

What was measured:
[1] = Avocatin B oral consumption pilot clinical study (Phase I, NCT03898505)
Method: A single center, double-blind, placebo-controlled, randomized, pilot clinical study was executed to determine the safety of consuming 50 mg (equivalent to consuming a quarter Hass avocado pulp) or 200 mg (equivalent to consuming one Hass avocado pulp) AvoB per day for 60 days in healthy human participants (NCT03898505).
The investigational product was approved by Health Canada (natural product number (NPN) 80074296). To create the product, freeze-dried avocado pulp powder was sourced from Avocado Oil New Zealand Ltd., (Tauranga, New Zealand) and tested for absolute quantities of AvoB per gram of powder using a validated analytical method^61. Clinical trial material was then standardized to contain low dose (50 mg) or high dose (200 mg) AvoB (FIG. 9). The placebo product was formulated similarly to the investigational product except it only contained the non-medicinal food-grade ingredients used in the test product and other excipients that were used to simulate appearance, smell, texture and taste of the investigational product. Participants in every group consumed 40 g of material per day for 60 days by dissolving/blending the product in 12-16 ounces of a smoothie like diluent (e.g., milk (with or without lactose), soy milk, coconut milk, or fruit juice of the participant's choice). All three products were approximately matched for total calories per serving.
Healthy volunteers (13 males and 17 females; age range 20-54 years, BMI range 19.1-29.9) were enrolled in the study. Exclusion criteria were: presence of active clinical disease and history of diabetes, hypertension, dyslipidemia, major depressive disorders, chronic liver disorders, kidney disorders, or blood disorders. […] Primary outcome was the analysis of adverse experiences (AEs) measured throughout the study. Secondary outcomes were to ascertain safety and tolerability which were assessed through clinically relevant changes in standard laboratory evaluations (blood chemistry and hematology) measured on days 0, 30 and 60. Body mass index (BMI) and glycated hemoglobin (HbA1c) were also measured as part of secondary outcomes. […]
Mean change from baseline at day 30 and 60 for all laboratory evaluations and body weight were analysed by the non-parametric Kruskal-Wallis—One-Way Analysis of Variance on Ranks. using GraphPad Prism 6.0 (GraphPad Software, USA) where differences with p<0.05 were considered to be statistically significant. AEs were tabulated (for all randomized patients who received at least one dose of study supplements) and analyzed using Fisher's exact test of independence in Statistical Analysis System (SAS) university edition where differences with p<0.05 were considered to be statistically significant.

[2] = system: insulin signaling (pAkt-Ser473), MAPK, AMPK; assay: Immunoblotting (pAkt, pERK1/2, pP38, pAMPKα, PGC-1α) and NAO mitochondrial mass in C2C12 myotubes; type: cell-based, mouse
Method: For all ROS studies, INS-1 (832/13) cells and C2C12 myotubes were treated with or without palmitate and FAO inhibitors for 24 h in low glucose cell culture media as described for the FAO assay. After treatment, cells were trypsinized and re-suspended in PBS containing 5 μM of the fluorescent dye MitoSOX® (Molecular Probes, Invitrogen) and allowed to incubate for 5-15 minutes in a humidified atmosphere containing 5% CO2 at 37° C. Cells were then washed in PBS, placed in a 96 well plate and fluorescence was measured by flow cytometry. ROS was quantified by normalizing the mean fluorescence values of live gated cells to vehicle control. Mitochondrial membrane potential (MMP) in INS-1 (832/13) and C2C12 myotubes was measured using the cationic fluorescent dye JC-1 (Molecular Probes). JC-1 accumulates in the mitochondrial matrix in an MMP dependent manner. JC-1 fluoresces green in the cytosol where it exists as a monomer, after entering the mitochondria JC-1 monomers form J aggregates and fluoresce red, thus the red/green fluorescence ratio is used to determine MMP. After all treatments, cells were washed, trypsinized and re-suspended in PBS containing 1 μM JC-1 and allowed to incubate for 5-10 minutes in a humidified atmosphere containing 5% CO2 at 37° C. Cells were then washed in PBS, placed in a 96 well plate and fluorescence was measured by flow cytometry. MMP was quantified by normalizing the mean fluorescence values of live gated cells to vehicle control. Mitochondrial mass was measured using 10-N-nonyl acridine orange (NAO; Enzo Life Sciences, ENZ-52306), which accumulates in the mitochondria in an MMP-independent manner where it binds to cardiolipin in the inner mitochondrial membrane. Cells were treated, washed and collected as described and incubated with 0.35 μM NAO and green fluorescence was measured using flow cytometry. In all analysis (ROS, MMP and mitochondrial mass), forward vs side scatter plots were gated to exclude debris (e.g., dead cells), as cell death is associated with increased ROS and altered membrane potentials. For all cell culture experiments, after drug treatments cells were washed with chilled phosphate-buffered saline (PBS), and lysed in chilled lysis buffer with 1× protease inhibitor cocktail (Sigma). RIPA lysis buffer (Sigma-Aldrich) was used for INS-1 (832/13) cells and muscle lysis buffer for C2C12 myotubes (20 mM HEPES, 10 mM NaCl, 1.5 mM MgCl2, 1 mM DTT, 20% glycerol, and 0.1% Triton-X100). Cells were scraped, mechanically homogenized using a syringe and centrifuged at 14,000×g for 20 min at 4° C. and the supernatants were collected. For preparation of all gastrocnemius muscle lysates, 10 mg frozen tissue (wet weight) was washed in chilled PBS, placed in a dounce homogenizer, lysed in muscle lysis buffer and centrifuged at 14,000×g for 20 min at 4° C. and the supernatant was collected. Protein content for cell and tissue lysates was measured using the BCA protein assay kit (ThermoFisher) according to manufacturer's protocol. Thirty μg protein lysates were prepared in loading buffer and immunoblotting was performed by heating lysates for 5 minutes at 95° C. and subjecting them to gel electrophoresis on 10% SDS-polyacrylamide gels at 150 V for 75 minutes. Using a semi-dry transfer apparatus (Bio-Rad) the gels were then transferred at 25V for 45 minutes to a PVDF membrane and blocked with 5% BSA (Sigma) in tris-buffered saline-tween (TBS-T) for 1 hour. […]

[3] = Complete blood count and plasma FFA/TAG in DIO mice; type: in vivo
Method: Complete blood count with differential (CBC w/diff) analysis was done on 500 μL of whole blood by the animal health laboratory at the University of Guelph. Plasma insulin, FFAs, and triacylglycerols (TAGs) were measured using a rat/mouse insulin ELISA kit (Millipore, Rat/Mouse Insulin Detection kit), FFA fluorometric assay kit (Cayman, MI, USA), and the TAG colorimetric assay kit (Cayman, MI, USA), respectively. Manufacturer's protocols were followed for all kits.

[4] = ad libitum HFD mice, AvoB 100 mg/kg b.w. twice weekly, vs control-HFD, endpoint

avocatin B [AvoB]
Body weight change between baseline and day 30 ([1]; both AvoB supplemented groups relative to placebo, trend, not statistically significant (p=0.10)): decreases in body weight | Change from baseline in body mass index or glycated hemoglobin (HbA1c) ([1]; either AvoB treated group compared to placebo): No clinically relevant changes from baseline | Overall tolerability / toxicity (adverse events) ([1]; healthy human participants, 50 or 200 mg AvoB/day for 60 days): generally well-tolerated; also recorded: exerted no toxicity | Palmitate induced phosphorylation of MAPK ERK1/2 and P38 ([2]; 25 μM AvoB, 0.5 mM palmitate, 24 h): reduce palmitate induced phosphorylation | AMPK activation (pAMPKα-Thr172) ([2]; 25 μM AvoB, 24 h): independent of AMPK activation | Mitochondrial biogenesis (PGC-1α protein, NAO dye) ([2]; 25 μM AvoB, 24 h): independent | Insulin signaling (insulin stimulated phosphorylation of AKT Ser473) ([2]; 0.5 mM palmitate 24 h, 100 nM insulin 30 min, AvoB 25 μM, DCA 1 mM, TRI 25 μM): restore the suppressive effects of lipotoxicity on insulin stimulated phosphorylation of AKT^Ser473 | Blood markers of toxicity (CBC w/diff) ([3]; HFD mice, AvoB 100 mg/kg b.w. twice weekly for 5 weeks, study endpoint): no effect on blood markers of toxicity | Plasma free fatty acids (FFA) [3, 4]: increased plasma levels of FFA | Plasma triacylglycerols (TAG) [3, 4]: increased
